Experimental findings from patent publication US20170052170A1, “NOVEL CELL LINES AND METHODS” (priority 2009, published 2017) are described below.

One experiment concerns the target T1, GABAA α2β3γ2s (α2) (Homo sapiens, UniProt P18507+P28472+P47869, A343T).
T1 construct: expressed in transfected cells; host or cells: CHO
The class given is cell-based. As for the experimental part: (§1) Cells were plated 24 hours prior to assay at 10-25,000 cells per well in 384 well plates in growth media (Ham's F-12 media plus FBS and glutamine). […] Incubation was for 1 hour, followed by plate loading onto the high throughput fluorescent plate reader (Hamamastu FDSS). […] The plates were read for 90 seconds.
(§2) Interaction of cell lines with test compounds was evaluated by measuring the membrane potential of GABAA, in response to test compounds using the following protocol.

A further experiment concerns the target T2, GABAA α5β3γ2s (α5) (Homo sapiens, UniProt P18507+P28472+P31644).
T2 construct: expressed in transfected cells; host or cells: CHO
The class given is cell-based. As for the experimental part:
as §1, §2

A further experiment deals with T3, GABAA α1β3γ2s (α1) (Homo sapiens, UniProt P14867+P18507+P28472).
T3 construct: expressed in transfected cells; host or cells: CHO
T3 sequence (P14867 28-456): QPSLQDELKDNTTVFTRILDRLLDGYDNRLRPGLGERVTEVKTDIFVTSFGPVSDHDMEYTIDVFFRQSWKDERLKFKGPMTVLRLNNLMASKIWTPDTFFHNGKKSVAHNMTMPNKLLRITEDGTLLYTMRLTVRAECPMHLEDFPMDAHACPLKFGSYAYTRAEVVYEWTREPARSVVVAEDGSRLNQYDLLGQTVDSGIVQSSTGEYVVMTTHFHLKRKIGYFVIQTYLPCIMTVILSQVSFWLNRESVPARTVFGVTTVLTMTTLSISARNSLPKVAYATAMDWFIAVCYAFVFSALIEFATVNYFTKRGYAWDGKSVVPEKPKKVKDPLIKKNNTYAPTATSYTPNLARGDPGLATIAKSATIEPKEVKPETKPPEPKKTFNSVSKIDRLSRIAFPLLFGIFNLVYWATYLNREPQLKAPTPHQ
T3 sequence (P28472 26-473): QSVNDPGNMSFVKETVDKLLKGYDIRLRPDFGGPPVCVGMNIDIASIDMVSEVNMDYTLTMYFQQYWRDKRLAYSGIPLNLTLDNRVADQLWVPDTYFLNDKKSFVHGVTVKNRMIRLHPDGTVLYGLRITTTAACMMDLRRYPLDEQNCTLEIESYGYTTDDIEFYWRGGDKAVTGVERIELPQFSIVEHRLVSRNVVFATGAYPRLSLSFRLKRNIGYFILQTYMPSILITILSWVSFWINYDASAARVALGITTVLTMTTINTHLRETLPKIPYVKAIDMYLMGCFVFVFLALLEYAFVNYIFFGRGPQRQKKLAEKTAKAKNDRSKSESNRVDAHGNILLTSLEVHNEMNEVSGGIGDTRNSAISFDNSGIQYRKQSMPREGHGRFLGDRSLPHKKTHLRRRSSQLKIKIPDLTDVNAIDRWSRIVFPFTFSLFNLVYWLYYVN
T3 sequence (P18507 40-467 isoform P18507-1 limits assumed): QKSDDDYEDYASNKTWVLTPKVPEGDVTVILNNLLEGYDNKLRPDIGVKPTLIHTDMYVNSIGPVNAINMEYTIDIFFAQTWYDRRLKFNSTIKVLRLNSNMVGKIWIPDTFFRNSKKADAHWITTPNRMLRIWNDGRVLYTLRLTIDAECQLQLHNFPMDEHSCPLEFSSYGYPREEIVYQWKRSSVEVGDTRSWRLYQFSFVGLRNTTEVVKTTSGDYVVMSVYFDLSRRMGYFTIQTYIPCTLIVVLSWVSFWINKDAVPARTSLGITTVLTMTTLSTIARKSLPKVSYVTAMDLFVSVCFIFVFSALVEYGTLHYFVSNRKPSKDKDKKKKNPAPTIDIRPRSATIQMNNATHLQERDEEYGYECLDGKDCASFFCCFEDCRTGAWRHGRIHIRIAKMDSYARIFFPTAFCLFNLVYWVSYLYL
The class given is cell-based. Particulars: CHO cells, membrane potential dye. As for the experimental part:
as §1, §2

For another experiment, the target named is T4, GABAA α3β3γ2s (α3) (Homo sapiens, UniProt P18507+P28472+P34903).
T4 construct: expressed in transfected cells; host or cells: CHO
T4 sequence (P34903 29-492): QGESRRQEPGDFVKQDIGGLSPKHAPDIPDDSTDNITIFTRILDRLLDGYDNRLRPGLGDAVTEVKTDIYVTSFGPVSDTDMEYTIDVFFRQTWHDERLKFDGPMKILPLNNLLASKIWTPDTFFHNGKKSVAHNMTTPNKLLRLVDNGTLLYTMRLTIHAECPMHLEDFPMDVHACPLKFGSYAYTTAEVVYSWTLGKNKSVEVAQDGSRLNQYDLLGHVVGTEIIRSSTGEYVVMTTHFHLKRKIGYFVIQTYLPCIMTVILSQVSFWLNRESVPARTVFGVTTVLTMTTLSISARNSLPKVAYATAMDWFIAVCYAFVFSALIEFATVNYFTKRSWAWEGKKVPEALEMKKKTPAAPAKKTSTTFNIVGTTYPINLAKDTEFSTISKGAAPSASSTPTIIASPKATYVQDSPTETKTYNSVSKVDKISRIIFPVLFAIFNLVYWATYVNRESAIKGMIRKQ
T4 sequence (P28472 26-473): as the sequence (P28472 26-473) above
T4 sequence (P18507 40-467 isoform P18507-1 limits assumed): as the sequence (P18507 40-467 isoform P18507-1 limits assumed) above
The experiment is classed as cell-based. Conditions: CHO cells, membrane potential dye. As for the experimental part: as §1, §2

Experiment [1] deals with GABAA (α1β3γ2s, α2β3γ2s, α3β3γ2s, α5β3γ2s). The experiment can be described thus: In-cell readout assay using halide-sensitive meYFP, GABAA-meYFP-CHO cells. The experiment is classed as cell-based, human. Particulars: increasing concentrations of GABA ligand. As to the method: The response of GABAA (subunit combinations of α1β3γ2s (A1), α2β3γ2s (A2), α3β3γ2s (A3) and α5β3γ2s (A5)) expressing CHO cells of the invention to test compounds was evaluated using the following protocol for an in-cell readout assay.
Cells were plated 24 hours prior to assay at 10-25,000 cells per well in 384 well plates in growth media (Ham's F-12 media plus FBS and glutamine). […] The assay plates were then loaded on the FDSS (Hamamatsu Corporation). […] The plates were read for 90 seconds.

Experiment [2] deals with T5, sweet taste receptor (human T1R2 and T1R3 subunits, mouse Gα15) (Homo sapiens, UniProt Q7RTX0+Q8TE23, C757R/I191V/I486V/R317G).
T5 construct: expressed in transfected cells; host or cells: HEK293T (ATCC CRL-11268)
T5 sequence (Q8TE23 20-839 I191V/R317G/I486V): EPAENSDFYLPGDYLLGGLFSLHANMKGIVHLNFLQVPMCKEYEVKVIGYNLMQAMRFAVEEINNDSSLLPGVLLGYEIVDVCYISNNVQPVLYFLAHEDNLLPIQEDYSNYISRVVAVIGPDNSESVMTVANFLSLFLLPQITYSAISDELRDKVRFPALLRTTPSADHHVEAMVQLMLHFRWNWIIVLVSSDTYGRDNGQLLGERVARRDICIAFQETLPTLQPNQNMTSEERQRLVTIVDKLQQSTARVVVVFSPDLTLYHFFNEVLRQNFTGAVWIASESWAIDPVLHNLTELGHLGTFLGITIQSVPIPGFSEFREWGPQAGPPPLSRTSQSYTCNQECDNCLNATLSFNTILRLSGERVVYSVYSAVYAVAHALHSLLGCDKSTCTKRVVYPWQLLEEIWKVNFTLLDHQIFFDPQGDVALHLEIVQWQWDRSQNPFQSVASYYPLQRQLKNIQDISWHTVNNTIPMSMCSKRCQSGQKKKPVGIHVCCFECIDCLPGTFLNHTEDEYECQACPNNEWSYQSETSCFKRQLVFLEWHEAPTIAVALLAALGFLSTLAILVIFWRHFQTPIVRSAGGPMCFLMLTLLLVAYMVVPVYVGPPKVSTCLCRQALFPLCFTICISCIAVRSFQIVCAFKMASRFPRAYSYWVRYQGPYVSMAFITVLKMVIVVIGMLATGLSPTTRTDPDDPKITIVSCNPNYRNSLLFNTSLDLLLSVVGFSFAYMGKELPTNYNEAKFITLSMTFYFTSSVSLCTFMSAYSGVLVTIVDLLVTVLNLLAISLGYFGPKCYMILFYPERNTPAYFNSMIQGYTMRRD
T5 sequence (Q7RTX0 21-852 C757R): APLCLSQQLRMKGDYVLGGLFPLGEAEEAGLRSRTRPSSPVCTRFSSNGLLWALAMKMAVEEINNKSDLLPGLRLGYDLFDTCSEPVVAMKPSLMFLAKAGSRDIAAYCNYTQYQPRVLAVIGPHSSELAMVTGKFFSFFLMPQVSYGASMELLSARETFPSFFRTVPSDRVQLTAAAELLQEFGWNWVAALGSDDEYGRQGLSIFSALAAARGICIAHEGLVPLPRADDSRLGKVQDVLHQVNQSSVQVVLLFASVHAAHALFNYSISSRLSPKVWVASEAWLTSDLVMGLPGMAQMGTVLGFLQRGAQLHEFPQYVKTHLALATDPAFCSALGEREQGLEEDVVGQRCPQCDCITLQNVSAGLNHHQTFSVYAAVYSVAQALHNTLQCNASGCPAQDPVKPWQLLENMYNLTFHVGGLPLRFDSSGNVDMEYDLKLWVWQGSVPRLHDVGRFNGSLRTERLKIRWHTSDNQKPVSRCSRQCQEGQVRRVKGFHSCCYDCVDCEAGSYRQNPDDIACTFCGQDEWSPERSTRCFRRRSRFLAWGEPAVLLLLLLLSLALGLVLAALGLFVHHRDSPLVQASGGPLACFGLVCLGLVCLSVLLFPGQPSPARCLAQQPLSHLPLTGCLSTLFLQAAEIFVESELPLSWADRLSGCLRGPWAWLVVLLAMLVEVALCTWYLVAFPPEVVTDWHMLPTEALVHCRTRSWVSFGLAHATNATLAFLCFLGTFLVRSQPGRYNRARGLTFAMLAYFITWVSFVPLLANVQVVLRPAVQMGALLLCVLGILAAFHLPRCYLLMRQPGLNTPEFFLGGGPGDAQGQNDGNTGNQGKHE
The experiment is described as follows: sweet taste receptor-expressing cell-based assay (calcium flux). Particulars: natural, high intensity and artificial sweeteners; FIGS. 23 and 24. From the text: FIG. 24 (A-C) is series of line graphs representing the data obtained in various dose response experiments using sweet taste receptor agonists in a sweet taste receptor-expressing cell-based assay (using cells of this invention). (A) The responses of a sweet taste receptor-expressing cell line to natural caloric sweeteners were plotted as a function of the agonist concentration. (B) Dose response curves of common artificial sweeteners in a sweet taste receptor-expressing cell-based assay. (C) Dose response curves of natural high-intensity sweeteners in a sweet taste receptor-expressing cell-based assay.
FIG. 25 is a series of representative response traces generated after performing a sweet taste receptor-expressing cell-based assay using cells of this invention.
To identify a taste receptor modulator (e.g., umami taste receptor modulator or sweet taste receptor modulator), one exposes a cell or cell line of the invention to a test compound under conditions in which the taste receptor (e.g., umami taste receptor or sweet taste receptor) would be expected to be functional and then detects a statistically significant change (e.g., p<0.05) in taste receptor activity (e.g., umami taste receptor activity or sweet taste receptor activity) compared to a suitable control, e.g., cells that are not exposed to the test compound. Positive and/or negative controls using known agonists or antagonists and/or cells expressing different combinations of taste receptor subunits (e.g., umami taste receptor subunits or sweet taste receptor subunits) (and optionally a G protein) may also be used. In some embodiments, the taste receptor activity (e.g., umami taste receptor activity or sweet taste receptor activity) to be detected and/or measured is calcium release from the endoplasmic reticulum as a result of the down stream signaling events following taste receptor activation (e.g., umami taste receptor activation or sweet taste receptor activation). One of ordinary skill in the art would understand that various assay parameters may be optimized, e.g., signal to noise ratio.
See, e.g., FIGS. 23 and 24.

Experiment [3] concerns the target T6, sweet taste receptor (T1R2/T1R3) (Homo sapiens, UniProt Q7RTX0+Q8TE23, C757R/I191V/I486V/R317G).
T6 construct: expressed in transfected cells; host or cells: HEK293T (ATCC CRL-11268)
T6 sequence (Q8TE23 20-839 I191V/R317G/I486V): T5 sequence (Q8TE23 20-839 I191V/R317G/I486V)
T6 sequence (Q7RTX0 21-852 C757R): T5 sequence (Q7RTX0 21-852 C757R)
The experiment can be described thus: Sweet cell-based calcium flux assay, HEK293T cells expressing T1R2, T1R3 and mouse Gα15. Conditions: FIG. 24, one assay; read-out: EC50 values (calcium flux).
Source text: Plates are then loaded on a high throughput plate reader (Hamamatsu FDSS). […] Calcium flux is detected for 90 seconds.

A further experiment has as its target human GC-C (human) (UniProt P25092). The experiment is described as follows: cell-based or functional assay.
[4] abbreviates: CHO cells, membrane potential dye.

Like-named read-outs stand apart in the source and are kept apart here. Peptide text beside a SMILES is read from it.

T1 sequence (P47869 29-451 A343T): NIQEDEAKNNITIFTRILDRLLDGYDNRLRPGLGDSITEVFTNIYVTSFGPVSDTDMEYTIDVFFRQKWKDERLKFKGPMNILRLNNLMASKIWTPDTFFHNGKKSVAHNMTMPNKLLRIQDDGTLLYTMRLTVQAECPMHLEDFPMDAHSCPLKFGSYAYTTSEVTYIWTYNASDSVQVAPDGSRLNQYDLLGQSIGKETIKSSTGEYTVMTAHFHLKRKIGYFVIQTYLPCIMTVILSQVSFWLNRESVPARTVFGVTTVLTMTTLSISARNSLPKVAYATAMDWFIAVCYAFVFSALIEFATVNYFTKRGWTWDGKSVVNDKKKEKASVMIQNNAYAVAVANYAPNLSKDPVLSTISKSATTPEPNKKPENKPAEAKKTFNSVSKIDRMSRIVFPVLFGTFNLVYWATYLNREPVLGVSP
T1 sequence (P28472 26-473, stated change not applied): as the sequence (P28472 26-473) above
T1 sequence (P18507 40-467 isoform P18507-1 limits assumed, stated change not applied): as the sequence (P18507 40-467 isoform P18507-1 limits assumed) above
T2 sequence (P31644 32-462): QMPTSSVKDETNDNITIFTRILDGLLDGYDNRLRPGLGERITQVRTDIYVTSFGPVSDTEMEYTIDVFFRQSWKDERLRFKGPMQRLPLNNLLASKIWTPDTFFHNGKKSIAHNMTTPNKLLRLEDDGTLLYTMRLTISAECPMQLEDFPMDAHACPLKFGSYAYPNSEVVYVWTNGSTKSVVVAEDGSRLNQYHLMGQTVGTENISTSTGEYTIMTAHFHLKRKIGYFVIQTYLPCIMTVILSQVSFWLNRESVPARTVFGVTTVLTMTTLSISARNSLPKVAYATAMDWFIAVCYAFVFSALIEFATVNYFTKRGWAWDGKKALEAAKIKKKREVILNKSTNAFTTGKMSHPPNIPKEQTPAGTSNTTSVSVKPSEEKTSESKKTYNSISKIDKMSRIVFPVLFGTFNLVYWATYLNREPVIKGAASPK
T2 sequence (P28472 26-473): as the sequence (P28472 26-473) above
T2 sequence (P18507 40-467 isoform P18507-1 limits assumed): as the sequence (P18507 40-467 isoform P18507-1 limits assumed) above
Chain of human GC-C (human) (P25092 24-1073): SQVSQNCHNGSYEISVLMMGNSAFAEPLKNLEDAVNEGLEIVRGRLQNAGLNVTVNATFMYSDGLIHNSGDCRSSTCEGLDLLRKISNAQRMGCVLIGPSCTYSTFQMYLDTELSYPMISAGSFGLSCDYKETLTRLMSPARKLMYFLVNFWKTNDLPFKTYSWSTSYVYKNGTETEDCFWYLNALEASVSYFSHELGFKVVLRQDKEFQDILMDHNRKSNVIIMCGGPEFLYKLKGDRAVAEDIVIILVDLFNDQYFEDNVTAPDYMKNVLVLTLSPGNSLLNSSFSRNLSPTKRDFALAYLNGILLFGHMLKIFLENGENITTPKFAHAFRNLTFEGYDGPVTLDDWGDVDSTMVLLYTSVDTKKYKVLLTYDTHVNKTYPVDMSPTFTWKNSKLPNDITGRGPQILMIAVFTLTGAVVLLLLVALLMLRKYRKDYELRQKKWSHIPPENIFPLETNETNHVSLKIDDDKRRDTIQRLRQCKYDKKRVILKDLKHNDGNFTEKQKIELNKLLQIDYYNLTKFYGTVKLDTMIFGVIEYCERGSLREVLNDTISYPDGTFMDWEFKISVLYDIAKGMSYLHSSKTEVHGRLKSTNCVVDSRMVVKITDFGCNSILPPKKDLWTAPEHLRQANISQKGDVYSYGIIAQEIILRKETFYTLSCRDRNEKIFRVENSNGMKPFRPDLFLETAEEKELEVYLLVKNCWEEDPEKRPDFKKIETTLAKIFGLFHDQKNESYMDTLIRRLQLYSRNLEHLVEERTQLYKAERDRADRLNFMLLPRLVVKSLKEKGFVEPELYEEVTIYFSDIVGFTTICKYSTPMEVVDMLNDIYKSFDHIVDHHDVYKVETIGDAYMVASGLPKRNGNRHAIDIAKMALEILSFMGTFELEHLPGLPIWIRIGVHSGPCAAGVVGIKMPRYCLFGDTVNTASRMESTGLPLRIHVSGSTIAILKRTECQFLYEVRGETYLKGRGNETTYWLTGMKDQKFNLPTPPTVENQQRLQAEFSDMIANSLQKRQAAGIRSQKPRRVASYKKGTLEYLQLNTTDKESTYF

As to `CC12CCC(O)CC1CCC1C2CCC2(C)C(C(=O)CO)CCC12` (stereo not drawn) [3-alpha, 21-dihydroxy-5-alpha-pregnan-20-one], the EC50 at GABAA α2β3γ2s (α2) (setting [4]) was 0.123 µM; at GABAA α5β3γ2s (α5) (setting [4]) it was 0.0173 µM; at GABAA α1β3γ2s (α1) it was 0.382 µM; at GABAA α3β3γ2s (α3), 0.0802 µM.
Turning to `CC(=O)C1CCC2C3CCC4CC(O)CCC4(C)C3CCC12C` (stereo not drawn) [5-alpha-Pregnan-3alpha-ol-20-one], the EC50 on GABAA α2β3γ2s (α2) was found to be 0.14 µM; on GABAA α5β3γ2s (α5), 0.0336 µM; on GABAA α1β3γ2s (α1), 0.692 µM; at GABAA α3β3γ2s (α3), 0.08 µM.
In the case of `NCCCC(=O)O` [GABA], in experiment [1], the “quench of meYFP signal” value is recorded as “increasing quench of meYFP signal”.
Take `COc1cc(/C=C(\C#N)C(=O)c2ccc(O)c(O)c2)cc(I)c1O` [I—OMe Tyrphostin 538]: the values for the EC50 on GABAA α2β3γ2s (α2) (setting [4]), at GABAA α1β3γ2s (α1) and at GABAA α3β3γ2s (α3) were 1.5 µM, 3.5 µM and 2.2 µM, respectively. The “EC50 Values α5 (result in words)” value at GABAA α5β3γ2s (α5) (setting [4]) is reported as “Not active”.
As for `CC(C)(C)c1cc(C=C(C#N)C#N)cc(C(C)(C)C)c1O` [Tyrphostin A9], the EC50 was 0.88 µM at GABAA α2β3γ2s (α2) (setting [4]), 54 µM on GABAA α5β3γ2s (α5) (setting [4]), 1.8 µM on GABAA α1β3γ2s (α1) and 5 µM at GABAA α3β3γ2s (α3).
On to `CC1=CC(=O)NS(=O)(=O)O1` [acesulfamek], for which the “response of sweet taste receptor cells and cell lines to known classes of sweet compounds” value (from here on “response … of sweet compounds”) in experiment [2] was “respond”.
Still for that read-out and setting: the entry for `COC(=O)[C@H](Cc1ccccc1)NC(=O)[C@@H](N)CC(=O)O` [asparatame] (H-Asp-Phe-OMe) is “respond”; for `C=C1C[C@@]23CC[C@H]4[C@@](C)(CCC[C@@]4(C)C(=O)O[C@@H]4O[C@H](CO)[C@@H](O)[C@H](O)[C@H]4O)[C@@H]2CC[C@]1(O[C@@H]1O[C@H](CO)[C@@H](O)[C@H](O[C@@H]2O[C@H](CO)[C@@H](O)[C@H](O)[C@H]2O)[C@H]1O[C@@H]1O[C@H](CO)[C@@H](O)[C@H](O)[C@H]1O)C3` [rebaudioside A] it is “respond”; for `O=C1NS(=O)(=O)c2ccccc21` [saccharin] it is “respond”.
In the case of `OC[C@H]1O[C@@](CO)(O[C@H]2O[C@H](CO)[C@@H](O)[C@H](O)[C@H]2O)[C@@H](O)[C@@H]1O` [sucrose], the EC50 in experiment [3] was under 3500 µM. Further, the “response … of sweet compounds” value in experiment [2] is “respond”.
As to Ivermectin, the EC50 amounted to 0.767 µM at GABAA α2β3γ2s (α2) (setting [4]), 0.687 µM at GABAA α5β3γ2s (α5) (setting [4]), 4.26 µM on GABAA α1β3γ2s (α1) and 0.798 µM at GABAA α3β3γ2s (α3).
As for guanylin (peptide), in the experiment with human GC-C (human), the EC50 of guanylin dose-response (absorbance as a function of changes in cGMP levels) came to 0.0011 µM and the level of cGMP worked out at 6 pmol/mL.
For the molecule mogroside, the “response … of sweet compounds” value in experiment [2] is given as “respond”.
